Measurements from ChEMBL document CHEMBL1201862, “PubChem BioAssay data set” (2004).
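Briefly, cells in 96-well plates were exposed to five compound concentrations for 48 h, and endpoints were estimated by linear interpolation. Abbreviation: GI50, concentration required for 50% inhibition of growth.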 The source made the active and inactive calls. Rule as the data show it: active = GI50 up to about 1.1 µM and inactive = higher.

Tests used:
Assay in all cases: NCI-60 cell line screen, 48 h
[1] = test system: IGROV-1
[2] = test system: CCRF-CEM
[3] = test system: SN12C
[4] = test system: COLO 205
[5] = test system: KM12
[6] = test system: HOP-92
[7] = test system: SW-620
[8] = test system: 786-0
[9] = test system: HCT-15
[10] = test system: RXF 393
[11] = test system: A498
[12] = test system: HCC 2998
[13] = test system: DU-145
[14] = test system: HOP-62
[15] = test system: SK-MEL-28
[16] = test system: HT-29
[17] = test system: SF-539
[18] = test system: EKVX
[19] = test system: MDA-MB-435
[20] = test system: MDA-N
[21] = test system: SF-268
[22] = test system: PC-3
[23] = test system: UACC-62
[24] = test system: LOX IMVI
[25] = test system: ACHN
[26] = test system: MOLT-4
[27] = test system: U-251
[28] = test system: K562
[29] = test system: TK-10
[30] = test system: RPMI-8226
[31] = test system: NCI-H460
[32] = test system: SK-OV-3
[33] = test system: CAKI-1
[34] = test system: SK-MEL-2
[35] = test system: SR
[36] = test system: NCI/ADR-RES
[37] = test system: NCI-H226
[38] = test system: OVCAR-4
[39] = test system: SNB-19
[40] = test system: T47D
[41] = test system: OVCAR-3
[42] = test system: SF-295
[43] = test system: MDA-MB-231
[44] = test system: OVCAR-5
[45] = test system: SNB-75
[46] = test system: Hs-578T
[47] = test system: A549
[48] = test system: HCT-116
[49] = test system: NCI-H23
[50] = test system: BT-549
[51] = test system: SK-MEL-5
[52] = test system: UO-31
[53] = test system: M14
[54] = test system: UACC-257
[55] = test system: NCI-H522
[56] = test system: Malme-3M
[57] = test system: MCF7
[58] = test system: OVCAR-8
[59] = test system: HL-60

COC(OC)[C@@H]1OC[C@H](n2cnc3c(N)ncnc32)[C@H]1O
GI50 [1]: > 100 µM (inactive)
GI50 [2]: > 100 µM (inactive)
GI50 [3]: > 100 µM (inactive)
GI50 [4]: > 100 µM (inactive)
GI50 [5]: > 100 µM (inactive)
GI50 [6]: > 100 µM (inactive)
GI50 [7]: > 100 µM (inactive)
GI50 [8]: > 100 µM (inactive)
GI50 [9]: > 100000 nM
GI50 [10]: > 100 µM (inactive)
GI50 [11]: > 100 µM (inactive)
GI50 [12]: > 100 µM (inactive)
GI50 [13]: > 100 µM (inactive)
GI50 [14]: > 100 µM (inactive)
GI50 [15]: > 100 µM (inactive)
GI50 [16]: > 100 µM (inactive)
GI50 [17]: > 100 µM (inactive)
GI50 [18]: > 100 µM (inactive)
GI50 [19]: > 100 µM (inactive)
GI50 [20]: > 100 µM (inactive)
GI50 [21]: > 100 µM (inactive)
GI50 [22]: > 100 µM (inactive)
GI50 [23]: > 100 µM (inactive)
GI50 [24]: > 100 µM (inactive)
GI50 [25]: > 100 µM (inactive)
GI50 [26]: > 100 µM (inactive)
GI50 [27]: > 100 µM (inactive)
GI50 [28]: > 100 µM (inactive)
GI50 [29]: > 100 µM (inactive)
GI50 [30]: > 100 µM (inactive)
GI50 [31]: > 100 µM (inactive)
GI50 [32]: > 100 µM (inactive)
GI50 [33]: > 100 µM (inactive)
GI50 [34]: > 100 µM (inactive)
GI50 [35]: > 100 µM (inactive)
GI50 [36]: > 100 µM (inactive)
GI50 [37]: > 100 µM (inactive)
GI50 [38]: > 100 µM (inactive)
GI50 [39]: 5.06 µM (inactive)
GI50 [40]: > 100 µM (inactive)
GI50 [41]: > 100 µM (inactive)
GI50 [42]: > 100 µM (inactive)
GI50 [43]: > 100 µM (inactive)
GI50 [44]: > 100 µM (inactive)
GI50 [45]: > 100 µM (inactive)
GI50 [46]: > 100 µM (inactive)
GI50 [47]: > 100 µM (inactive)
GI50 [48]: > 100 µM (inactive)
GI50 [49]: > 100 µM (inactive)
GI50 [50]: > 100 µM (inactive)
GI50 [51]: > 100 µM (inactive)
GI50 [52]: > 100 µM (inactive)
GI50 [53]: > 100 µM (inactive)
GI50 [54]: > 100 µM (inactive)

CN(C)CCNc1nc2ccccc2c2c1C(=O)c1ccccc1-2
GI50 [1]: 0.0942 µM (active)
GI50 [2]: 0.0923 µM (active)
GI50 [3]: 0.0565 µM (active)
GI50 [4]: 0.303 µM (active)
GI50 [5]: 0.326 µM (active)
GI50 [6]: 0.327 µM (active)
GI50 [7]: 0.137 µM (active)
GI50 [8]: 0.132 µM (active)
GI50 [9]: 150 nM
GI50 [55]: 211 nM (active)
GI50 [10]: 0.18 µM (active)
GI50 [11]: 0.163 µM (active)
GI50 [12]: 0.134 µM (active)
GI50 [13]: 0.149 µM (active)
GI50 [14]: 0.233 µM (active)
GI50 [15]: 0.471 µM (active)
GI50 [16]: 0.191 µM (active)
GI50 [17]: 0.382 µM (active)
GI50 [18]: 0.361 µM (active)
GI50 [19]: 0.288 µM (active)
GI50 [20]: 0.318 µM (active)
GI50 [56]: 251 nM (active)
GI50 [21]: 0.279 µM (active)
GI50 [22]: 0.27 µM (active)
GI50 [23]: 0.0849 µM (active)
GI50 [24]: 0.147 µM (active)
GI50 [25]: 0.0834 µM (active)
GI50 [26]: 0.01 µM (active)
GI50 [27]: 0.219 µM (active)
GI50 [28]: 0.163 µM (active)
GI50 [29]: 0.513 µM (active)
GI50 [30]: 0.123 µM (active)
GI50 [31]: < 0.0194 µM (active)
GI50 [32]: 0.703 µM (active)
GI50 [33]: 0.124 µM (active)
GI50 [34]: 0.368 µM (active)
GI50 [36]: 0.267 µM (active)
GI50 [37]: 0.205 µM (active)
GI50 [38]: 0.338 µM (active)
GI50 [39]: 0.47 µM (active)
GI50 [40]: 0.281 µM (active)
GI50 [57]: 50.8 nM (active)
GI50 [41]: 0.556 µM (active)
GI50 [42]: 0.225 µM (active)
GI50 [43]: 0.542 µM (active)
GI50 [44]: 0.367 µM (active)
GI50 [45]: 0.564 µM (active)
GI50 [46]: 2.1 µM (inactive)
GI50 [47]: 0.0581 µM (active)
GI50 [48]: 0.049 µM (active)
GI50 [49]: 0.316 µM (active)
GI50 [50]: 0.914 µM (active)
GI50 [51]: 0.301 µM (active)
GI50 [52]: 0.15 µM (active)
GI50 [53]: 0.316 µM (active)
GI50 [58]: 195 nM (active)
GI50 [59]: < 43.2 nM (active)
GI50 [54]: 0.538 µM (active)
